The target in one experiment is T1, recombinant HDAC1 enzyme (Homo sapiens, UniProt Q13547).
T1 construct: purchased BIOMOL, USA
The experiment in a line: HDAC1 inhibitory activity, recombinant enzyme. It counts as biochemical. To be noted: recombinant HDAC1 (BIOMOL); read-out: HDAC1 inhibition (IC50). The method, then:
Assay was done in 96-well black microplate and total volume of the assay was 100 μL. Mouse liver enzyme (10 mg/ml) was diluted 1:6 with HDAC buffer. Enzyme cocktail was made of 10 μL of diluted enzyme and 30 μL of HDAC buffer. 40 μl of enzyme cocktail followed by 10 μL of test compound (1 μM and 10 μM) or buffer (control) was added to each well. The plate was pre-incubated at 37° C. for 5 minutes. The HDAC reaction was started by adding 50 μl of HDAC substrate Boc-Lys (Ac)-AMC (Bachem AG, Switzerland). The plate was incubated at 37° C. for 30 minutes. The reaction was stopped by adding 100 μL of Trypsin stop solution and incubating at 37° C. for 15-30 minutes. Measuring the fluorescence at excitation wavelength of 360 nm and emission wavelength of 460 nm monitored the release of AMC. Buffer alone and substrate alone served as blank. […] (Dennis Wegener et al, Anal. Biochem, 321, 2003, 202-208).
Since the benzamide type compounds are known to have potential for HDAC class 1 specificity, active compounds were tested for HDAC1 inhibitory activity. The assay was carried out, as previously described using recombinant HDAC1 enzyme (BIOMOL, USA) and following manufacturer's instructions.

For the next experiment, the system named is NCI-H460 (lung) cells. The experiment in a line: Anti-cancer screen, growth inhibition (MTT). Type of experiment: cell-based. To be noted: Homo sapiens, 48 hours of incubation. In outline:
(§1)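 MTT added for 3 h at 37° C, formazan dissolved in DMSO and A570 read. A T0 plate was measured at compound addition.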

For another experiment, the system named is HCT 116 (colon) cells. The experiment in a line: Anti-cancer screen, growth inhibition (MTT). Type of experiment: cell-based. The note with it: Homo sapiens, HCT-116 cells, 48 hours of incubation. In outline: as §1
A further experiment has as its system U251 (glioma) cells. Briefly: Anti-cancer screen, growth inhibition (MTT). Type of experiment: cell-based. To be noted: Homo sapiens, U-251 cells, 48 hours of incubation. An outline of the steps: as §1
Experiment [1] has as its target T2, HDAC (Mouse Liver Extract).
T2 construct: Mouse liver enzyme (10 mg/ml) was diluted 1:6 with HDAC buffer
Briefly: HDAC inhibition assay using Boc-Lys(Ac)-AMC substrate, mouse liver enzyme.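 For IC50: IC50 for inhibition of HDAC activity in mouse liver extract.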 Type of experiment: biochemical.

The next experiment has as its system acetylated Tubulin. The experiment in a line: Tubulin acetylation, sandwich ELISA in HCT116 cell lysate. To be noted: HCT116 cells, 4 hours, vs control. Type of experiment: cell-based. The method, then:
(§2) The incubation lasted 18 hours for p21 induction. After incubation, cell lysates were prepared in cell lysis buffer by sonication on ice. The lysates were collected after centrifugation and subjected to ELISA test procedure. 100 μL of each diluted cell lysate in dilution buffer (1:1) was added to appropriate capture antibody coated microwells and incubated overnight at 4° C. After washing, 100 μL of detection antibody was added for 1 hour at 37° C. After second washing, 100 μL of HRP-linked secondary antibody was added for 30 minutes at 37° C. Finally, after appropriate washing, 100 μL of TMB substrate was added for 10 minutes at 37° C. followed by 100 μL, of stop solution. The absorbance of individual wells was read using a spectrophotometer at 450 nm (A450).
On the technique in general: In an ELISA, binding on a coated surface is turned into a signal by an enzyme label.

In the next experiment the test system is p21. Briefly: p21 induction, sandwich ELISA in HCT116 cell lysate. Type of experiment: cell-based. To be noted: HCT116 cells, 18 hours, vs control. The method, then: as §2
The next experiment has as its system HCT116 (colon) xenograft. It counts as in vivo. The note with it: 100 mg/kg p.o. qdx21, HCT116 xenograft, vs vehicle treated control. The method, then:
Experiments were carried out using 6-8 week old female […] SCID (Severe Combined Immune Deficient) mice. The mice were housed in Individually Ventilated Cages (IVC) at constant temperature (22±3° C.) and humidity (50±20%). They had free access to food and water. Tumors were obtained from ATCC, USA and maintained in vivo by subcutaneous (s.c.) passage of tumor fragments (app×30 mg) in healthy mice according to standard reported procedures. All the animal protocols were approved by the Institutional Animal Ethics Committee, ORLL, Chennai. Each experimental group included 6-8 mice bearing s.c. tumors. Tumors were implanted into the axillary region by puncturing using a Trocar, and tumor growth was monitored by measurement of tumor diameters with a Vernier caliper. Tumor Volume (TV) was calculated according to the following formula: TV (mm^3)=L×W^2×0.5,
Where L and W are the longest diameter and shortest diameter of the tumor, respectively. The compound treatment started when tumors were palpable (150-200 mm^3).
Test compound was administered by oral gavage in a volume of 5-10 ml/kg. […] Tumor size was measured twice every week and body weight was recorded daily prior to dosing.
Test compound (T) efficacy was assessed by calculating several parameters based on tumor volume (TV) with respect to untreated control (C). […]
Toxic effects of drug treatment were assessed by Body Weight Loss %. […]

For the next experiment, the system named is Acetylated histone (H3). Briefly: Histone (H3) acetylation, sandwich ELISA in HCT116 cell lysate. It counts as cell-based. The note with it: HCT116 cells, 4 hours, vs control. The method, then:
as §2

We go through three compounds from patent US8450525B2, “Histone deacetylase inhibitors” (Orchid Chemicals & Pharmaceuticals Limited, priority 2007, dated 2013).

As usually defined, the IC50 is the concentration that gives 50% inhibition. One may read the GI50 as the concentration at which growth is held to half of that of the control. Read a low GI50 as more potent growth inhibition.

T1 sequence (Q13547 whole entry): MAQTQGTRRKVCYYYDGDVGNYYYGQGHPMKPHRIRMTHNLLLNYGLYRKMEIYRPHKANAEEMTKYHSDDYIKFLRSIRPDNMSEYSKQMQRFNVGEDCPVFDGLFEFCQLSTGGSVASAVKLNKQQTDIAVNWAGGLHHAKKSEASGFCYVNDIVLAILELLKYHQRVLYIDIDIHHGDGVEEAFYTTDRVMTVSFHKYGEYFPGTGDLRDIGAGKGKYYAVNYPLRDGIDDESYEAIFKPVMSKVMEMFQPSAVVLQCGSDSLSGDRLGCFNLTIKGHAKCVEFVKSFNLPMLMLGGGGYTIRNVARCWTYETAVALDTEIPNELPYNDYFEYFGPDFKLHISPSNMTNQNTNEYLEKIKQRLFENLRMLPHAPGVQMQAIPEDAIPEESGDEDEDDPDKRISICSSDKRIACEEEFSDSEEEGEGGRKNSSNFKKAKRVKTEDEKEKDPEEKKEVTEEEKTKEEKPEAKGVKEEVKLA

Consider `Nc1ccccc1NC(=O)c1ccc(/C=C(/C(=O)NC2CC2)c2ccc(F)cc2)cc1` [Example 105, (E)-N-(2-Aminophenyl)-4-(3-(cyclopropylamino)-2-(4-fluorophenyl)-3-oxoprop-1-en-1-yl)benzamide], for which the IC50 on recombinant HDAC1 enzyme amounted to 77 nM; in [1], 15.8 µM. Also, the GI50 with NCI-H460 (lung) cells stood at 0.9 µM; in the experiment on HCT 116 (colon) cells, 1000 nM; in the experiment on U251 (glioma) cells, 4.8 µM. The “HDAC Inhibition % (1 μM)” value in experiment [1] turned out to be 46.0%. Besides, the “HDAC Inhibition % (10 μM)” value in experiment [1] is reported as 71.3%. Besides, the “μ-Tubulin Acetylation (Fold Increase)” value in the experiment on acetylated Tubulin (1 μM) is given as 2.22; in the experiment on acetylated Tubulin (10 μM) it was 8.98. Moreover, the results for the “P21 Induction (Fold Increase)” value with p21 (1 μM) and in the experiment with p21 (10 μM) were 1.05 and 2.50, respectively. Moreover, the “maximum Tumor Volume Inhibition (TVI)” value with HCT116 (colon) xenograft stood at 39.4%. The entries for the “H3 Acetylation (Fold Increase)” value in the experiment on Acetylated histone (H3) (1 μM) and in the experiment on Acetylated histone (H3) (10 μM) were 1.24 and 6.67, respectively.
Consider `Nc1ccccc1NC(=O)c1ccc(/C=C(/C(=O)NC2CC2)c2cccc(Cl)c2)cc1` [Example 114, N-(2-Aminophenyl)-4-(3-(cyclopropylamino)-2-(3-chlorophenyl)-3-oxoprop-1-en-1-yl)benzamide], for which the IC50 on recombinant HDAC1 enzyme is 44 nM; in experiment [1] it was 5.5 µM. The GI50 in the experiment with NCI-H460 (lung) cells worked out at 5 µM; in the experiment with HCT 116 (colon) cells, 400 nM; in the experiment with U251 (glioma) cells, 4 µM. In addition, in [1], the “HDAC Inhibition % (1 μM)” value turned out to be 34.5%. For the same compound, the “HDAC Inhibition % (10 μM)” value in experiment [1] is recorded as 59.0%.
Take `Nc1ccccc1NC(=O)c1ccc(/C=C(/C(=O)NC2CC2)c2ccc(F)c(F)c2)cc1` [Example 115, N-(2-Aminophenyl)-4-(3-(cyclopropylamino)-2-(3,4-difluorophenyl)-3-oxoprop-1-en-1-yl)benzamide]: the results for the IC50 (on recombinant HDAC1 enzyme; in [1]) were 68 nM and 8.3 µM, respectively. Besides, the GI50 with NCI-H460 (lung) cells was found to be 6 µM; in the experiment on HCT 116 (colon) cells it was 100 nM; in the experiment with U251 (glioma) cells, 15 µM. Besides, the “HDAC Inhibition % (1 μM)” value in experiment [1] was found to be 31.1%. For the same compound, in experiment [1], the “HDAC Inhibition % (10 μM)” value is 50.1%.
